From EP4014964A1, “TOPICAL FORMULATION” (Almirall S.A., priority 2020, dated 2022)

Tested on: immortalized human sebocyte cell line, SZ95
Experiment: In vitro assay of inhibition of Lipid Synthesis
Assay type: cell-based
Settings: SZ95 cells, lipid synthesis induced by 75µM AA, 48h, neutral lipids measured with AdipoRed fluorescence
Description: To evaluate the inhibition of lipid synthesis, the immortalized human sebocyte cell line, SZ95 (stablished by Zouboulis, C.C. et al J Invest Dermatol 1999; 113: 1011-20), was treated with arachidonic acid (AA) in presence or absence of compound. Lipids were detected by using a lipid sensing fluorophore.
10k cells were plated in 384 well microtiter plates and incubated at 37 °C and 5% CO2 in DMEM/F12 supplemented with 10% FBS, 1.25ng/ml of rhEGF and GA-1000, using the MicroClime Lids from Labcyte to reduce the edge effect, before of compound and stimulus addition.
After 24h, compounds were dissolved in DMSO 100%. Then the stocks were serial diluted 1/3 in DMSO 100%, and this battery of solutions were diluted 1/10 in culture medium. Later, compounds dissolved in culture media were added over cells, diluting the solutions prepared 1/40 in the final volume of the assay. Then, cells and compounds were preincubated for 30 min at 37 °C and 5% CO2. After this prior incubation, the lipid synthesis was induced by 75µM of AA final solution, preparing a solution 10x in culture media containing a 1.25% of DMSO. Finally, SZ95 treated were incubated for 48h at 37°C and 5% CO2.
Neutral lipids were measured using AdipoRedTM, purchased from Lonza. To do that, cells were washed with PBS and incubated with a solution of AdipoRedTM (final dilution 1/80 in PBS) for 30 min at room temperature. After the staining process, the fluorescence intensity (FI) was quantified using a fluorescence plate reader (excitation 485 nm; emission 535).
Activity of compounds was calculated as % of inhibition considering the maximal fluorescence for AA-stimulated cells and the minimum fluorescence for unstimulated cells as controls.

SMILES	IC50 (Homo sapiens) [µM]	IC50 [µM]
CCCCCCCc1ccc(-c2c[nH]c(C(=O)O)c2F)c(Cl)c1 [Example 1, 4-(2-Chloro-4-heptylphenyl)-3-fluoro-1H-pyrrole-2-carboxylic acid]	< 0.2	
CCCCCCCCC1CCC(c2c[nH]c(C(=O)O)c2F)CC1 (stereo not shown) [Example 4, 3-Fluoro-4-((1r,4s)-4-octylcyclohexyl)-1H-pyrrole-2-carboxylic acid]		< 0.2
CCCCCCCCCCCCCc1c[nH]c(C(=O)O)c1F [Example 3, 3-Fluoro-4-tridecyl-1H-pyrrole-2-carboxylic acid]	< 0.05	
CCCCCCCc1ccc(-c2c[nH]c(C(=O)O)c2F)c(CC)c1 [Example 2, 4-(2-Ethyl-4-heptylphenyl)-3-fluoro-1H-pyrrole-2-carboxylic acid]	< 0.2	
